Results reported in patent publication US20260209152A1, “Substituted Hydroxystilbene Compounds and Derivatives, Synthesis and Uses Thereof” (Kynan Duke IP, LLC, priority 2019, published 2026).
Read-outs that look alike come from different tables or passages of the source.

Experiments:
[1] = test system: Bladder HT-1197; test: CellTiter Glo cell viability assay; format: cell-based, human; conditions: for IC50: Homo sapiens
Protocol: (§1) 1.7*10^3 cells/well were seeded in quadruplicates in 96-well plate after plating. Drugs were added at 5 μM and 2-fold dilutions over 18 concentrations (0.000038146-5 […] range) to generate a dose-response curve. Cell growth was assessed on day 1, 3 and 5 after drug treatments using the CellTiter Glo Luminescence Cell Viability Assay (Promega) according to manufacturer's protocol. Thermo Scientific Varioskan LUX Multimode Microplate instrument was used for plate reading. Data are expressed as mean luminescence (arbitrary units) ±S.D.
(§2) Cell Viability Assays were employed to determine the concentration of Compound 1 (KYN-001) and analogues where the response is reduced by half. For each treatment of cancer cells, 1, 2, 5, 10 and 20 μM solutions of compounds were applied. GraphPad Prism 7 software was used to fit dose response curves. Relative Luminescence Units were plotted against the log values of the doses used and the nonlinear regression model was used for data analysis.
(§3) The protocol for cell proliferation was optimized for Compound 8 (KYN-119) to enable a more accurate assessment of its low IC50 value. In this protocol, 18 dosages (2 fold dilutions ranging from 0.000038146 to 5 μM) were applied to cells seeded in 96-well plates, and Luminescence was measured after 1, 3 and 5 days upon treatments.

[2] = test system: Bladder T24; test: CellTiter Glo cell viability assay; format: cell-based, human; conditions: for IC50: Homo sapiens
Protocol: as §1, §2, §3

[3] = test system: Bladder UMUC_3; test: CellTiter Glo cell viability assay; format: cell-based, human; conditions: for IC50: Homo sapiens
Protocol: as §1, §2, §3

[4] = test system: Ewing's Sarcoma HTB-166; test: CellTiter Glo cell viability assay; format: cell-based, human; conditions: for IC50: Homo sapiens
Protocol: as §1, §2, §3

[5] = test system: Liver HepG2; test: CellTiter Glo cell viability assay; format: cell-based, human; conditions: for IC50: Homo sapiens
Protocol: as §1, §2, §3

[6] = test system: Lung NCI-H1437; test: CellTiter Glo cell viability assay; format: cell-based, human; conditions: for IC50: Homo sapiens
Protocol: as §1, §2, §3

[7] = test system: Osteosarcomas SAOS-2; test: CellTiter Glo cell viability assay; format: cell-based, human; conditions: for IC50: Homo sapiens
Protocol: as §1, §2, §3

[8] = test system: Pancreatic HPAFII; test: CellTiter Glo cell viability assay; format: cell-based, human; conditions: for IC50: Homo sapiens
Protocol: as §1, §2, §3

[9] = test system: Pancreatic PANC-1; test: CellTiter Glo cell viability assay; format: cell-based, human; conditions: for IC50: Homo sapiens
Protocol: as §1, §2, §3

[10] = test system: Tongue CAL 27; test: CellTiter Glo cell viability assay; format: cell-based, human; conditions: for IC50: Homo sapiens
Protocol: as §1, §2, §3

[11] = test system: Bladder RT4; test: CellTiter Glo cell viability assay; format: cell-based; conditions: Homo sapiens
Protocol: as §1, §2, §3

[12] = test system: Kidney 769-P; test: CellTiter Glo cell viability assay; format: cell-based; conditions: Homo sapiens
Protocol: as §1, §2, §3

[13] = test system: Rhabomyosarcoma A-204; test: CellTiter Glo cell viability assay; format: cell-based; conditions: Homo sapiens
Protocol: as §1, §2, §3

[14] = test system: Cancer cells including pancreatic, bladder, kidney, colon, breast, lung, liver and osteosarcomas; test: CellTiter Glo cell viability assay, panel of cancer cell lines; format: cell-based, human
Summary of the method: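 Cells (1.7*10^3/well) were seeded in quadruplicate and treated with 2-fold dilutions over 18 concentrations up to 5 μM, or with 1, 2, 5, 10 and 20 μM. Viability was read by CellTiter Glo luminescence on days 1, 3 and 5; half-maximal concentrations came from nonlinear regression of RLU versus log dose.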

[15] = test system: GBM patient sample BNA99; test: Ex vivo GBM 3D spheroid drug response (CellTiter-Glo 3D); format: cell-based, human; conditions: Homo sapiens, 96 h, 3D spheroids; 4 days post drug treatment
Text: (§4) This project involves an ex vivo drug response screen for 3 ROKiT Pharma test agents and Temozolomide in 3 previously dissociated and cryopreserved GBM samples.
(§5) • 2.1 Three previously processed GBM patient samples were chosen to be used in this study.

[16] = test system: GBM patient sample BNB04; test: as above; format: cell-based, human; conditions: Homo sapiens, 96 h, 3D spheroids; 4 days post drug treatment
Text: as §4, §5

[17] = test system: GBM patient sample BNB18; test: as above; format: cell-based, human; conditions: Homo sapiens, 96 h, 3D spheroids; 4 days post drug treatment
Text: as §4, §5

[18] = test system: Pancreatic CAPAN-1; test: CellTiter Glo cell viability assay; format: cell-based; conditions: Homo sapiens; Capan-1/HTB-79; 11 dilutions 3-0.00001 μM
[19] = HT1197, 72 h, 3 Days of treatment, 18 2-fold dilutions 5-0.00003 μM, read-out: Average IC50
[20] = HT1197, HT-1197/CRL-1473, 11 dilutions 3-0.00001 μM, read-out: IC50
[21] = 72 h, 3 Days of treatment, 18 2-fold dilutions 5-0.00003 μM, read-out: Average IC50
[22] = T24/HTB-4, 11 dilutions 3-0.00001 μM, read-out: IC50
[23] = UMUC3, 72 h, 3 Days of treatment, 18 2-fold dilutions 5-0.00003 μM, read-out: Average IC50
[24] = UMUC3, UM-UC-3/CRL-1749, 11 dilutions 3-0.00001 μM, read-out: IC50
[25] = RD-ES/HTB-166, 11 dilutions 3-0.00001 μM, read-out: IC50
[26] = HepG2, 72 h, 3 Days of treatment, 18 2-fold dilutions 5-0.00003 μM, read-out: Average IC50
[27] = HepG2, Hep G2/HB-8065, 11 dilutions 3-0.00001 μM, read-out: IC50
[28] = NCI-H1437, 72 h, 3 Days of treatment, 18 2-fold dilutions 5-0.00003 μM, read-out: Average IC50
[29] = NCI-H1437/CRL-5872, 11 dilutions 3-0.00001 μM, read-out: IC50
[30] = SAOS-2, 72 h, 3 Days of treatment, 18 2-fold dilutions 5-0.00003 μM, read-out: Average IC50
[31] = Saos-2/HTB-85, 11 dilutions 3-0.00001 μM, read-out: IC50
[32] = HPAF-II, 72 h, 3 Days of treatment, 18 2-fold dilutions 5-0.00003 μM, read-out: Average IC50
[33] = HPAF-II/CRL-1997, 11 dilutions 3-0.00001 μM, read-out: IC50
[34] = PANC-1, 72 h, 3 Days of treatment, 18 2-fold dilutions 5-0.00003 μM, read-out: Average IC50
[35] = PANC-1/CRL-1469, 11 dilutions 3-0.00001 μM, read-out: IC50
[36] = CAL-27, 72 h, 3 Days of treatment, 18 2-fold dilutions 5-0.00003 μM, read-out: Average IC50
[37] = CAL 27/CRL-2095, 11 dilutions 3-0.00001 μM, read-out: IC50
[38] = RT4/HTB-2, 11 dilutions 3-0.00001 μM, read-out: IC50
[39] = 769-P/CRL-1933, 11 dilutions 3-0.00001 μM, read-out: IC50
[40] = A204, A-204/HTB-82, 11 dilutions 3-0.00001 μM, read-out: IC50
[41] = IC50 of 1 [KYN-001] vs 8 [KYN-119], 3 Days

IC50 [2, 21] [nM]	IC50 [2, 22] [nM]	IC50 [4, 21] [nM]	IC50 [4, 25] [nM]	IC50 [5, 26] [nM]	IC50 [5, 27] [nM]	IC50 [6, 28] [nM]	IC50 [6, 29] [nM]	IC50 [9, 34] [nM]	IC50 [9, 35] [nM]	SMILES	IC50 [1, 19] [nM]	IC50 [1, 20] [nM]	IC50 [3, 23] [nM]	IC50 [3, 24] [nM]	IC50 [7, 30] [nM]	IC50 [7, 31] [nM]	IC50 [8, 32] [nM]	IC50 [8, 33] [nM]	IC50 [10, 36] [nM]	IC50 [10, 37] [nM]	also measured
129	182	257	310	212	577	347	143	107	110	COc1cc(/C=C/c2cc(O)cc(OC)c2CC=C(C)C)ccc1O [Compound 1, (E)-3-(4-hydroxy-3-methoxystyryl)-5-methoxy-4-(3-methylbut-2-en-1-yl)phenol]	258	108	31.3	333	110	173	1070	417	56.8	89.4	IC50 [11, 38]: 1380 nM; IC50 [12, 39]: 363 nM; IC50 [13, 40]: 199 nM; Effect on cell viability on Day 1 ([14]; Day 1 upon treatment at dosages <1 μM): neither 1 nor 8 affect cell viability; IC50 ([14]; Homo sapiens, comparative study on 83 cancer cell lines (Table 3), read-out: IC50 values in the range, towards the cell lines listed in the text): 10 to 100 nM; IC50 [15]: 15 µM; IC50 [16]: 10.9 µM; IC50 [17]: 1330 nM; IC50 [18]: 2670 nM
22.5	61.1	49.2	163	20.2	296	16.6	32.7	11.5	31.4	CCOc1cc(O)cc(/C=C/c2ccc(O)c(OC)c2)c1CC=C(C)C [Compound 8, (E)-3-Ethoxy-5-(4-hydroxy-3-methoxystyryl)-4-(3-methylbut-2-en-1-yl)phenol]	11.5	48.5	5.48	54.8	15.4	79.1	403	242	38.3	30.9	Fold IC50 [1, 41]: 22; Fold IC50 [2, 41]: 5.8; Fold IC50 [3, 41]: 5.7; Fold IC50 [4, 41]: 5.2; Fold IC50 [5, 41]: 11; Fold IC50 [6, 41]: 21; Fold IC50 [7, 41]: 7.2; Fold IC50 [8, 41]: 2.7; Fold IC50 [9, 41]: 9.3; Fold IC50 [10, 41]: 1.5; IC50 [11, 21]: 1670 nM; IC50 [11, 38]: 968 nM; IC50 ([12]; 769-P, 72 h, 3 Days of treatment, 18 2-fold dilutions 5-0.00003 μM, read-out: Average IC50): 33.7 nM; IC50 [12, 39]: 109 nM; IC50 ([13]; A204, 72 h, 3 Days of treatment, 18 2-fold dilutions 5-0.00003 μM, read-out: Average IC50): 30.7 nM; IC50 [13, 40]: 67.8 nM; Average fold (8 [KYN-119] more potent than 1 [KYN-001]) ([14]; 83 cancer cell lines, Table 3): 10; IC50 [18]: 2320 nM
